Experimental data from the supplement of paper PMC10307832.

What was measured:
Assay in all cases: relative viability (nuclei count vs DMSO), 5 days (fraction); higher = more cells survive
Linsitinib + Luminespib = compound: C[C@]1(O)C[C@@H](c2nc(-c3ccc4ccc(-c5ccccc5)nc4c3)c3c(N)nccn32)C1 [Linsitinib] + CCNC(=O)c1noc(-c2cc(C(C)C)c(O)cc2O)c1-c1ccc(CN2CCOCC2)cc1 [Luminespib] (partner 0.01 µM)
How it was run: (§1)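 Medians of duplicate plates are given as relative viability. That measure is the nuclei count in treated wells divided by the count in vehicle wells. Counts were taken on 4× images of lung cancer cell lines in 1536-well plates, 5 days after pin-tool dosing the day after seeding with one drug alone or a fixed anchor-drug dose plus five library-drug doses (not always all listed) in √10 steps.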

Ispinesib + Phenformin = compound: Cc1ccc(C(=O)N(CCCN)[C@@H](c2nc3cc(Cl)ccc3c(=O)n2Cc2ccccc2)C(C)C)cc1 [Ispinesib] + N=C(N)NC(=N)NCCc1ccccc1 [Phenformin] (partner 250 µM)
How it was run: as §1

Ispinesib + Vorinostat = compound: Cc1ccc(C(=O)N(CCCN)[C@@H](c2nc3cc(Cl)ccc3c(=O)n2Cc2ccccc2)C(C)C)cc1 [Ispinesib] + O=C(CCCCCCC(=O)Nc1ccccc1)NO [Vorinostat] (partner 1 µM)
How it was run: as §1

Ispinesib + Foretinib = compound: Cc1ccc(C(=O)N(CCCN)[C@@H](c2nc3cc(Cl)ccc3c(=O)n2Cc2ccccc2)C(C)C)cc1 [Ispinesib] + COc1cc2c(Oc3ccc(NC(=O)C4(C(=O)Nc5ccc(F)cc5)CC4)cc3F)ccnc2cc1OCCCN1CCOCC1 [Foretinib] (partner 0.25 µM)
How it was run: as §1

Row | Cell Line | relative viability (Linsitinib + Luminespib; first compound 0.01 µM) | relative viability (Linsitinib + Luminespib; first compound 0.03162 µM) | relative viability (Linsitinib + Luminespib; first compound 0.1 µM) | relative viability (Linsitinib + Luminespib; first compound 0.3162 µM) | relative viability (Linsitinib + Luminespib; first compound 1 µM) | relative viability (Ispinesib + Phenformin; first compound 0.001 µM) | relative viability (Ispinesib + Phenformin; first compound 0.003162 µM) | relative viability (Ispinesib + Phenformin; first compound 0.01 µM) | relative viability (Ispinesib + Phenformin; first compound 0.03162 µM) | relative viability (Ispinesib + Phenformin; first compound 0.1 µM) | relative viability (Ispinesib + Vorinostat; first compound 0.001 µM) | relative viability (Ispinesib + Vorinostat; first compound 0.003162 µM) | relative viability (Ispinesib + Vorinostat; first compound 0.01 µM) | relative viability (Ispinesib + Vorinostat; first compound 0.03162 µM) | relative viability (Ispinesib + Vorinostat; first compound 0.1 µM) | relative viability (Ispinesib + Foretinib; first compound 0.001 µM) | relative viability (Ispinesib + Foretinib; first compound 0.003162 µM) | relative viability (Ispinesib + Foretinib; first compound 0.01 µM) | relative viability (Ispinesib + Foretinib; first compound 0.03162 µM) | relative viability (Ispinesib + Foretinib; first compound 0.1 µM)
1 | NCI-H522 | 1.55 | 1.18 | 1.18 | 0.961 | 1.2 | 0.613 | 0.627 | 0.694 | 0.603 | 0.349 | 0.824 | 0.897 | 0.803 | 0.592 | 0.351 |  |  |  |  | 
2 | PC-3 [JPC-3] | 0.716 | 0.69 | 0.764 | 0.669 | 0.712 | 0.494 | 0.475 | 0.44 | 0.461 | 0.254 | 0.776 | 0.977 | 0.794 | 0.498 | 0.435 | 1.09 | 1.1 | 0.594 | 1.07 | 0.751
3 | NCI-H1703 |  |  |  |  |  |  |  |  |  |  |  |  |  |  |  | 0.331 | 0.372 | 0.346 | 0.16 | 0.157
4 | EPLC-272H | 0.23 | 0.438 |  |  | 0.725 | 0.317 | 0.283 | 0.262 | 0.217 | 0.145 | 0.351 | 0.635 | 0.322 | 0.128 | 0.341 | 0.793 | 0.657 | 0.659 | 0.322 | 0.23
5 | NCI-H1792 | 0.427 | 0.52 | 0.371 | 0.297 | 0.328 | 0.396 | 0.317 | 0.257 | 0.0806 | 0.154 |  |  |  |  |  |  |  |  |  | 
6 | NCI-H2085 | 0.36 | 0.425 | 0.379 | 0.402 | 0.407 | 0.751 | 0.692 | 0.75 | 0.474 | 0.278 | 0.773 | 0.762 | 0.864 | 0.594 | 0.429 | 0.838 | 1.06 | 1.05 | 0.848 | 0.371
7 | LK-2 | 0.173 | 0.152 | 0.187 | 0.192 | 0.166 | 0.377 | 0.475 | 0.4 | 0.318 | 0.291 | 0.247 | 0.348 | 0.343 | 0.195 | 0.24 | 1.25 | 1.21 | 1.43 | 1.2 | 0.617
8 | NCI-H1395 | 0.672 | 0.585 | 0.616 | 0.63 | 0.732 | 0.491 | 0.487 | 0.514 | 0.354 | 0.292 | 0.754 | 0.871 | 0.385 | 0.386 | 0.421 | 1.06 | 0.998 | 1.03 | 0.866 | 0.356
9 | ABC-1 | 0.544 | 0.392 | 0.604 | 0.519 | 0.312 | 0.278 | 0.223 | 0.289 | 0.197 | 0.226 | 1.14 | 1.3 | 1.05 |  | 0.548 | 1.37 | 1.35 | 1.11 | 0.507 | 0.382
10 | RERF-LC-KJ | 1.12 | 1.15 | 1.42 | 1.13 | 1.1 | 0.422 | 0.365 | 0.33 | 0.217 | 0.253 | 0.585 | 0.679 | 0.553 | 0.39 | 0.397 | 0.875 | 0.9 | 0.976 | 0.91 | 0.257
11 | LU99A | 0.272 | 0.25 | 0.231 | 0.241 | 0.216 | 0.892 | 0.837 | 0.965 | 0.373 | 0.235 | 0.445 | 0.485 | 0.467 | 0.265 | 0.247 | 0.835 | 0.858 | 0.814 | 0.55 | 0.428
12 | NCI-H650 | 0.774 | 0.919 | 0.877 | 0.66 | 0.669 | 0.451 | 0.445 | 0.476 | 0.312 | 0.18 | 0.508 | 0.459 | 0.475 | 0.365 | 0.199 | 1.04 | 1.04 | 1.09 | 0.985 | 0.896
13 | NCI-H2347 | 0.454 | 0.284 | 0.362 |  | 0.389 | 0.404 | 0.547 | 0.414 | 0.553 | 0.386 | 0.562 | 0.617 | 0.738 | 0.625 | 0.471 |  | 1.12 | 1.16 | 0.669 | 0.904
14 | HARA | 0.715 | 0.828 | 0.945 |  | 0.173 | 0.492 | 0.509 | 0.614 | 0.343 | 0.113 | 0.519 | 0.567 | 0.528 | 0.477 | 0.389 | 1.18 | 0.931 | 0.976 | 1.04 | 0.132
15 | NCI-H2228 | 0.138 | 0.179 | 0.214 | 0.145 | 0.139 | 0.283 | 0.312 | 0.321 | 0.126 | 0.145 | 0.742 | 0.786 | 0.722 | 0.341 | 0.242 | 0.909 | 0.957 | 1.24 | 1 | 0.322
16 | EKVX | 0.844 | 0.842 | 0.87 | 0.688 | 0.684 | 0.24 | 0.244 | 0.243 | 0.238 | 0.152 | 0.741 | 0.78 | 0.693 | 0.623 | 0.561 | 0.897 | 0.85 | 1.05 | 0.604 | 0.275
17 | HCC-827 | 0.733 | 0.599 | 0.648 |  | 0.657 | 0.424 | 0.432 | 0.457 | 0.332 | 0.257 | 0.827 | 0.999 | 0.861 | 0.649 | 0.696 | 1.04 | 1.02 | 1.05 | 0.936 | 0.684
18 | NCI-H1755 | 0.41 | 0.244 | 0.419 | 0.327 | 0.469 | 0.553 | 0.646 | 0.638 | 0.463 | 0.195 | 0.726 | 0.789 | 0.937 | 0.636 | 0.419 | 0.909 | 0.987 | 1.01 | 0.874 | 0.737
